For the assay, the system named is Aedes aegypti mosquitoes. Nature of the assay: Field test of mosquito landings on human subjects near candles containing the test substance. Type of assay: in vivo. The settings on record: for Four Day Totals of Mosquito Landings On Subjects: field test, Connecticut, August 2003, candles at four corners of 7 ft x 7 ft squares, 18 inches above ground, four human subjects, landings counted on arms, legs and torso, control without substance 152. On the procedure:
In a test of the inhibiting ability of the (S)-(+)-linalool chiral isomer compound of this invention, the following field test was conducted. The study was conducted in August 2003 on a site in Connecticut. Candles containing the test compound or no compound were placed 18 inches above the ground at the four corners of 7 ft×7 ft squares, with the squares being placed 50 ft apart. Four subjects (persons) were employed in the tests. On a given day, the subjects were rotated through all four positions of a square. Each day, treatments rotated to the next position, so that each treatment was tested at each site. The landing of mosquitoes on the subject were counted. Landing counts were taken from the arms, legs and torso of a test subject.

For `C=CC(C)(O)CCC=C(C)C` (stereo not drawn) [Linalool: 35% (+), 65% (−), Linalool, reference compound], the “Four Day Totals of Mosquito Landings On Subjects” value is 82.
Take `C=CC(C)(O)CCC=C(C)C` (stereo not drawn) [Linalool: 85% (+), 15% (−), Linalool]: the “Four Day Totals of Mosquito Landings On Subjects” value is listed as 42. Moreover, for the setting “same candle field test, four day totals”, the “Mosquito landings relative to linalool” value is reported as 73.5%.

The values are drawn from US20050090563A1, “Method and compositions for inhibiting the scent tracking ability of mosquitoes and biting midges” (Bedoukian Research, Inc., priority 2003, published 2005).
